The subject of one series is HaCat cells. Briefly: m6A methylation level of human HaCat keratinocytes, EpiQuik m6A RNA methylation quantification kit (Example 20). The series is classed as cell-based. The note with it: HaCat cells, 24 hours. The protocol:
HaCat cells were cultured in a DMEM culture medium containing 10% fetal bovine serum, 100 U/mL penicillin, and 100 μg/mL streptomycin. Culture dishes were placed in an incubator containing 5% CO2 for culture at 37° C. for 24 hours. An equal volume of DMSO was added in control group 1, 50 nM sorafenib, capecitabine, docetaxel, and osimertinib were respectively added in control groups A, B, C, and D, and 400 nM test compounds or nicotinamide were respectively added in sample groups A1-17, B1-17, C1-17, and D1-17 after the addition of 50 nM corresponding compounds. The cells were continuously cultured for 24 hours, washed with PBS, and then collected by high-speed centrifugation. Total RNA was extracted using a Trizol reagent (Sigma Aldrich), and RNA m6A methylation of a sample was quantitatively detected using an EpiQuik m6A RNA methylation quantification kit. The concentrations of positive control samples for a standard curve were 0.01 ng/μl, 0.02 ng/μl, 0.05 ng/μl, 0.1 ng/μl, 0.2 ng/μl, and 0.5 ng/μl. The absorbance at 450 nm was read using a microplate reader (Tecan GENios). A quantitative calculation formula for m6A is as follows:
m6A (ng)=(absorbance of sample well−absorbance of background well)/slope of standard curve m6A (%)=m6A (ng)/RNA amount of sample (ng)*100%.

The test system of the next series is HaCaT keratinocytes. Briefly: Inhibition of HBEGF-induced differentiation of HaCaT keratinocytes, marker mRNA by RT-PCR (Example 21). Type of series: cell-based, human. The note with it: 2.5 ng/mL human recombinant HBEGF protein + test compound, 24 hours. The protocol: Human HaCaT keratinocytes were cultured in a DMEM culture medium containing 10% fetal bovine serum, 100 U/mL penicillin, and 100 µg/mL streptomycin. The cells were seeded into a 96-well plate at a density of […] and placed in an incubator containing 5% carbon dioxide for culture at 37° C. for 24 hours. An equal volume of DMSO was added into control well 1, a 2.5 ng/mL human recombinant HBEGF protein (Abcam, ab205523) was added into control well 2, and a 2.5 ng/mL human recombinant HBEGF protein and corresponding concentrations of test compounds were added into sample wells. The cells were continuously cultured for 24 hours, washed with PBS, and then collected by high-speed centrifugation. Total RNA was extracted using a Trizol reagent (Sigma Aldrich). 1 μg of RNA was reverse-transcribed into cDNA using a cDNA reverse transcription kit (Transgene Biotech, AT311-03). 1.25 μL of a primer (with a primer sequence shown in Table 2), 10 μL of an iTag Universal SYBR Green supermix (Bio-Rad, 172-S125), and an appropriate amount of DEPC ultrapure water were added to formulate 20 μL of a reaction solution to perform an RT-PCR reaction. Upon completion of the reaction, the reaction solution was subjected to agarose gel electrophoresis to determine the mRNA expression amounts of keratinocyte differentiation markers KRT1, KRT10, Loricrin, and Involucrin.

Another series deals with paw plantar skin of rats. Briefly: Rat models with hand-foot skin reaction, topical ointment (Example 22). The series is classed as in vivo, SD rats. The note with it: for Incidence rate (successful modeling rate for hand-foot skin reaction): modeling drug alone by gavage once daily, no ointment, SD rats, 30 days. On the procedure:
After adaptive feeding for one week, SD rats (with a body weight of approximately 200 g) were randomly divided into groups according to the body weight, with 12 rats in each group. Modeling drugs (including sorafenib, erlotinib, afatinib, and osimertinib) were respectively dissolved in a solution containing 5% of DMSO, 45% of PEG400, and 50% of H2O, and the modeling drugs were diluted to required concentrations and then administered once daily by gavage at doses shown in Table 3. After administration by gavage for 1 hour, 0.05 g of ointments containing different mass proportions of test compounds were evenly applied to left paws of the rats, a blank matrix ointment was applied to right paws of the rats to serve as a self-control, and no ointment was applied to the rats in a blank control group. After drug application, four limbs were continuously immobilized for 2 hours, then wiped with clean water to remove the residual drugs, removed from immobilization, and restored to free movement. The modeling drugs, the blank matrix ointment, and the ointments containing the test compounds were all administered once daily. After continuous administration for 30 days, the rats were euthanized, and paw plantar skin tissues were collected, fixed in 10% neutral formalin, […]. The ointments for the test compounds were prepared by mixing the compounds, white beeswax, white petrolatum, and light liquid paraffin in specific ratios (weight ratios of 3 ointments were respectively 1:18:58:23, 3:18:57:22, and 10:20:40:30). The blank matrix ointment was prepared by mixing white beeswax, white petrolatum, and light liquid paraffin in a specific ratio (weight ratio of 18:60:22).
Tissue staining: After dewaxing and rehydration, the paw plantar skin tissue sections of the above rats were stained in a hematoxylin solution for several minutes, cleaned, and placed in 1% acid alcohol for soaking until the sections faded to light blue-red. After cleaning with running water for 5 minutes, the sections were stained with eosin for 2-3 minutes, cleaned to remove excess dyes, dehydrated, then permeabilized by adding xylene for several minutes, and sealed and fixed with a neutral resin. The stratum corneum was observed under an optical microscope, and the thickness of the epidermal stratum corneum was measured using Dmetrix software.
Immunohistochemical staining: After dewaxing and hydration, the paw plantar skin tissue sections of the above rats were incubated with 3% H2O2 at room temperature for 30 minutes and blocked with 10% goat serum for 30 minutes after antigen retrieval. A KRT1 antibody (Abcam, ab93652) and a Loricrin antibody (Abcam, ab183646) were added dropwise, the sections were incubated overnight at 4° C., and an HRP secondary antibody (ZSGB-BIO, PV-6001) and a DAB kit (ZSG-BIO, ZLI9017) were added for color development. The sections were re-stained with hematoxylin, cleaned, and sealed and fixed with a neutral resin, and the expression amounts of KRT1 and Loricrin were observed under an optical microscope.
An incidence rate calculation method involves a proportion of animals in each group meeting the above criteria for determining successful modeling, that is, incidence rate=(number of successfully modeled rats/total number of rats in the group)*100%. […]

Setting [1] is: 50 nM capecitabine + 400 nM test compound.
[2] abbreviates: 50 nM docetaxel + 400 nM test compound.
Where [3] appears, read: 50 nM osimertinib + 400 nM test compound.
The mark [4] stands for this setting: 50 nM sorafenib + 400 nM test compound.
[5] abbreviates: successfully modeled rats, modeling drug.

Turning to `NC(=O)C1CCCc2c1[nH]c1cc(F)c(Cl)cc21` (centres unmarked) [Compound 3b, 6-chloro-7-fluoro-2,3,4,9-tetrahydro-1H-carbazole-1-carboxamide], the “m6A fold change relative to control group 1” value with HaCat cells (setting [1]) was determined as 2.9; in the series on HaCat cells (setting [2]), 3.2; with HaCat cells (setting [3]), 3.1; in the series on HaCat cells (setting [4]) it was 3.3. Further, the “mRNA expression amounts of HaCaT differentiation markers KRT1, KRT10, Loricrin, and Involucrin” value in the series with HaCaT keratinocytes is on record as “significantly inhibited”.

For the molecule `NC(=O)C1c2[nH]c3ccc(Cl)cc3c2C2CCC1C2` [Compound 5b, (R)-2-chloro-5,6,7,8,9,10-hexahydro-7,10-methanocyclohepta[b]indole-6-carboxamide], the “m6A fold change relative to control group 1” value with HaCat cells (setting [1]) worked out at 4.8; in the series with HaCat cells (setting [2]), 4.8; in the series with HaCat cells (setting [3]) it was 5.0; in the series on HaCat cells (setting [4]), 3.8.

Turning to `C#Cc1cccc(Nc2ncnc3cc(OCCOC)c(OCCOC)cc23)c1` [Erlotinib, erlotinib, reference compound], in the series with paw plantar skin of rats (rat, in vivo), the “KRT1 and Loricrin in tissues (immunohistochemical staining)” value is given as “significantly increased”; the “stratum corneum thickness of the paw plantar skin” value is on record as “significantly higher than that of normal rats”.

As to `NC(=O)[C@@H]1CCCc2c1[nH]c1ccc(Cl)cc21` [Compound 2a, (R)-6-chloro-2,3,4,9-tetrahydro-1H-carbazole-1-carboxamide], the “m6A fold change relative to control group 1” value in the series on HaCat cells (setting [1]) is recorded as 3.5; in the series on HaCat cells (setting [2]) it was 5.6; with HaCat cells (setting [3]) it was 3.2; with HaCat cells (setting [4]) it was 3.4.

With `CN1CCC(C(N)=O)c2[nH]c3ccc(Cl)cc3c21` (centres unmarked) [Compound 8, 8-chloro-1-methyl-2,3,4,5-tetrahydropyrido[3,2-b]indole-4-carboxamide], the “m6A fold change relative to control group 1” value in the series on HaCat cells (setting [1]) stood at 1.7; in the series with HaCat cells (setting [2]), 3.0; in the series on HaCat cells (setting [3]) it was 2.1; in the series with HaCat cells (setting [4]), 2.5.

`NC(=O)C1c2[nH]c3ccc(Cl)cc3c2C2CCC1C2` (centres unmarked) [Compound 5, 2-chloro-5,6,7,8,9,10-hexahydro-7,10-methanocyclohepta[b]indole-6-carboxamide]: the “m6A fold change relative to control group 1” value came out at 3.0 in the series on HaCat cells (setting [1]), 2.9 in the series on HaCat cells (setting [2]), 3.1 in the series with HaCat cells (setting [3]) and 2.4 in the series on HaCat cells (setting [4]).

On to `CN1CC[C@@H](C(N)=O)c2[nH]c3ccc(Cl)cc3c21` [Compound 8a, (R)-8-chloro-1-methyl-2,3,4,5-tetrahydropyrido[3,2-b]indole-4-carboxamide], for which the “m6A fold change relative to control group 1” value in the series with HaCat cells (setting [1]) was 2.4; with HaCat cells (setting [2]), 4.8; with HaCat cells (setting [3]), 3.2; in the series with HaCat cells (setting [4]), 4.0.

Regarding `NC(=O)C1CCCc2c1[nH]c1ccc(F)cc21` (centres unmarked) [Compound 1, 6-fluoro-2,3,4,9-tetrahydro-1H-carbazole-1-carboxamide], the “m6A fold change relative to control group 1” value in the series on HaCat cells (setting [1]) is 3.0; with HaCat cells (setting [2]), 3.2; with HaCat cells (setting [3]), 3.4; in the series with HaCat cells (setting [4]) it was 2.9.

As to `CC1CCC(C(N)=O)c2[nH]c3ccc(Cl)cc3c21` (centres unmarked) [Compound 6, 6-chloro-4-methyl-2,3,4,9-tetrahydro-1H-carbazole-1-carboxamide], the “m6A fold change relative to control group 1” value is reported as 3.2 in the series on HaCat cells (setting [1]), 5.1 in the series with HaCat cells (setting [2]), 3.5 in the series with HaCat cells (setting [3]) and 3.4 in the series on HaCat cells (setting [4]).

Regarding `NC(=O)C1CCCc2c1[nH]c1cc(Nc3ccccc3)c(Cl)cc21` (centres unmarked) [Compound 9, 6-chloro-7-phenylamino-2,3,4,9-tetrahydro-1H-carbazole-1-carboxamide], the “m6A fold change relative to control group 1” value is recorded as 3.9 in the series on HaCat cells (setting [1]), 3.9 in the series on HaCat cells (setting [2]), 4.0 in the series with HaCat cells (setting [3]) and 3.5 in the series with HaCat cells (setting [4]).

For the molecule `NC(=O)C1CCCc2c1[nH]c1ccc(Cl)c(F)c21` (centres unmarked) [Compound 3a, 6-chloro-5-fluoro-2,3,4,9-tetrahydro-1H-carbazole-1-carboxamide], the “m6A fold change relative to control group 1” value in the series with HaCat cells (setting [1]) is 2.8; in the series on HaCat cells (setting [2]), 4.2; in the series with HaCat cells (setting [3]), 2.9; in the series with HaCat cells (setting [4]), 3.3. The “mRNA expression amounts of HaCaT differentiation markers KRT1, KRT10, Loricrin, and Involucrin” value in the series with HaCaT keratinocytes was “significantly inhibited”.

With `NC(=O)C1CCCc2c1[nH]c1cc(F)c(Cl)c(F)c21` (centres unmarked) [Compound 4, 6-chloro-5,7-difluoro-2,3,4,9-tetrahydro-1H-carbazole-1-carboxamide], the “m6A fold change relative to control group 1” value with HaCat cells (setting [1]) is recorded as 3.2; in the series with HaCat cells (setting [2]) it was 5.1; in the series on HaCat cells (setting [3]) it was 4.2; with HaCat cells (setting [4]), 3.6.

On to `NC(=O)C1CCC(F)c2c1[nH]c1ccc(Cl)cc21` (centres unmarked) [Compound 7, 6-chloro-4-fluoro-2,3,4,9-tetrahydro-1H-carbazole-1-carboxamide], for which the “m6A fold change relative to control group 1” value with HaCat cells (setting [1]) was found to be 3.9; in the series with HaCat cells (setting [2]), 3.4; with HaCat cells (setting [3]) it was 2.9; in the series on HaCat cells (setting [4]), 3.3.

In the case of `CN(C)C/C=C/C(=O)Nc1cc2c(Nc3ccc(F)c(Cl)c3)ncnc2cc1O[C@H]1CCOC1` [Afatinib, afatinib, reference compound], the “Incidence rate (successful modeling rate for hand-foot skin reaction)” value in the series with paw plantar skin of rats is on record as 8/12 (66.7%). Besides, in the series on paw plantar skin of rats (listed as afatinib), the “Incidence rate (successful modeling rate for hand-foot skin reaction)” value amounted to 66.7%. In the series on paw plantar skin of rats (setting [5]), the “KRT1 and Loricrin in tissues (immunohistochemical staining)” value was “significantly increased”; the “stratum corneum thickness of the paw plantar skin” value is recorded as “significantly higher than that of normal rats”.
